Experimental data: patent US11925618B2, “Pharmaceutical combination for the treatment of cancer” (Piramal Enterprises Limited, priority 2014, dated 2024)
Where two headings read alike, the source gives them in different places.

Legend:
Format in all cases: cell-based
[1] = test system: Thioredoxin Reductase (TrxR); assay: TrxR activity assay (DTNB reduction) in FaDu cell lysates; conditions: FaDu cells, DTNB reduction with or without ATM
Method: • (i) Cell lines: The cell lines of FaDu for head and neck squamous cell carcinomas (HNSCC) obtained from ATCC (American Tissue type Culture Collection), USA. • (ii) DTNB: Dithio nitro benzoic acid • (iii) ATM: Aurothiomalate
TrxR assay was conducted in six-well plates with 1M cells per well. The cells were treated with various concentrations of auranofin or voruciclib and in combination of both. The TrxR activity was measured in cell lysates using DTNB (Dithio nitro benzoic acid). The DINS was reduced to TNB (Thio nito benzoic acid) with or without a specific TrxR inhibitor, Aurothiomalate (ATM). The TrxR activity was calculated based on the difference in slope obtained from linear kinetic of DTNB reduction with or without ATM treatment.
The effect of auranofin and voruciclib combination on TrxR activity assay in FaDu cells are depicted in FIG. 16. The data is represented as mean±SEM (N=2) of % TrxR activity (Y-axis) and various concentration (μM) of Auranofin or voruciclib or combination of both (X-axis); PC—Positive control, C—Vehicle control.

MDA-MB-231 cell lines = assay: CGI (cell growth inhibition, propidium iodide) assay in MDA-MB-231 cell lines; conditions: determined at 72 h
Method: (§1) The media was removed from the flask containing cells and 2-3 mL of sterile 1×DPBS was added to the flask. The DPBS was then removed from the flask and 2 mL of trypsin was added to the flask. The flask was kept in the incubator for a few seconds. The cells were then checked whether dislodged and if dislodged, 2 mL of serum was added to the flask. To the flask was then added 5-6 mL of media and swirled. The media was collected from the flask and centrifuged at 600 rpm for 10 min.
(§2) The supernatant solution was decanted and the pellet was re-suspended in 10 mL of media. To a 1.7 mL MCT; 50 μL of tryphan blue, 40 μL of media and 10 μL of cell suspension were added. The solution was then vortexed and 10 μL of this solution was loaded on a hemocytometer. The cells were counted in hemocytometer chambers and further calculated to get a count of ≥3000 cells/well/200 μL.
(§3) The cell stock was prepared using respective media and FBS, and 200 μL of the cell stock was added to each well (except media control wells) of white delta treated 96 well plate using a multi-channel pipette. To the media control wells, 200 μL of media was added. The plates were then incubated at 37° C. for 12-16 h.
(§4) The drug (the therapeutic agent) i.e. the CDK inhibitor and the antioxidant enzyme inhibitor were separately diluted to 10 folds using DMSO. The media of the plates was changed before the addition of drug to the plates and these plates were then placed in the incubator. 1 μL of CDK inhibitor and antioxidant enzyme inhibitor was added simultaneously to the respective wells and placed on the plate shaker for 15-30 mins. The plates were then placed back in incubator for 72 h or the time of incubation as decided.
(§5) 200 μL of media from each well was gently aspirated and then added 100 μL of 1×DPBS at room temperature to each well. The working stock of PI (stock 1 mg/mL) was prepared using 140 μL of PI and 20 mL of 1×DPBS for one plate. Then 1×DPBS was removed from the wells and 200 μL of PI working stock was added to each well. These plates were kept in dark for 5-10 min at room temperature on a shaker, after which the plates were stored at −80° C. until reading of the plate.
(§6) The plate was read in Spectramax fluorescence excitation maximum is 535 nm and the emission maximum is 617 nm.
Cell lines: The cell lines of MDA-MB-231 for triple negative breast cancer (TNBC) obtained from ATCC (American Tissue type Culture Collection), USA were used in this study.
The analysis of combination index and cell growth inhibition was carried out using CGI assay method. […]
The combination studies of CDK inhibitor with each of the TrxR inhibitors, auranofin, ebselen and ATO was carried out at 12, 24, 48 and 72 h and the time point for which optimum synergy was obtained was determined. […]

FaDu cell lines = assay: CGI (cell growth inhibition, propidium iodide) assay in FaDu cell lines
Method: as §1, §2, §3, §4, §5, §6
Cell lines: The cell lines of FaDu for head and neck squamous cell carcinomas (HNSCC) obtained from ATCC (American Tissue type Culture Collection), USA were used in this study.
The analysis of combination index (CI) and cell growth inhibition was carried out using CGI assay method. […]
The combination studies of CDK inhibitor with TrxR inhibitor, auranofin was carried out at 12, 24, 48 and 72 h and the time point for which optimum synergy was obtained was determined. […]

[2] = test system: ROS production in FaDu cells; assay: Cellular ROS detection assay using DCFDA; conditions: single agent
Method: as §1
as §2, with “≥25000” for “≥3000”, “μL. […]” for “μL.”
The plate was read in Spectamax fluoroscence excitation maximum is 485 nm and the emission maximum is 535 nm. […]
The […] cells were treated with various concentrations (μM) of auranofin or voruciclib alone or in combination. […] The treated FaDu/MDAMB-431 cells were analyzed on a fluorescent plate reader vis-a-vis the cells of positive control which were treated with 50 μM tert-butyl hydrogen peroxide (TBHP). […]

Compound	effect on TrxR activity [1]	EC50 (MDA-MB-231 cell lines) [µM]	EC50 (FaDu cell lines; FaDu cell lines, determined at 48 h, read-out: EC50) [µM]	increase in ROS level as compared to untreated control [2] [%]	EC50 (MDA-MB-231 cell lines; Homo sapiens) [µM]	EC50 (FaDu cell lines; Homo sapiens, FaDu, 72 h) [µM]	EC50 (FaDu cell lines; Homo sapiens, FaDu cell lines, determined at 48 h, read-out: EC50) [µM]	EC50 (FaDu cell lines; FaDu cell lines, determined at 72 h, read-out: EC50) [µM]
CC(=O)OC[C@H]1O[C@@H]([S-])[C@H](OC(C)=O)[C@@H](OC(C)=O)[C@@H]1OC(C)=O.CCP(CC)CC.[Au+] [Auranofin]	concentration dependent reduction	0.15	0.15	~100				
O=c1c2ccccc2[se]n1-c1ccccc1 [Ebselen]					3.89	4.02		
CN1CC[C@@H](c2c(O)cc(O)c3c(=O)cc(-c4ccc(C(F)(F)F)cc4Cl)oc23)[C@@H]1CO.Cl [Voruciclib, (+)-2-[2-Chloro-4-(trifluoromethyl)phenyl]-5,7-dihydroxy-8-[(2R,3S)-2-(hydroxymethyl)-1-methylpyrrolidin-3-yl]-4H-chromen-4-one hydrochloride]	no effect			~80	2.3		2.04	
Arsenic trioxide [ATO]		5.19						4.87
